{
  "source": "paper PMC5218480",
  "about": "(PLoS ONE, 2017)",
  "test_system": "MV-4-11 cells",
  "experiment": "Gene expression microarray analysis (Affymetrix PrimeView) and GSEA",
  "format": "cell-based, human",
  "set-up": "RFU PODN (11730768_x_at) / Fold change /veh PODN (11730768_x_at) / RFU LINC00158 (11744669_a_at) / Fold change /veh LINC00158 (11744669_a_at) / RFU DUSP10 (11751237_a_at) / Fold change /veh DUSP10 (11751237_a_at) / RFU ID3 (11757404_x_at) / Fold change /veh ID3 (11757404_x_at) / RFU PLEKHG5 (11737974_s_at) / Fold change /veh PLEKHG5 (11737974_s_at) / RFU LRRC4B (11730491_at) / Fold change /veh LRRC4B (11730491_at) / RFU GIMAP4 (11747438_a_at) / Fold change /veh GIMAP4 (11747438_a_at) / RFU KRT8 (11758183_x_at) / Fold change /veh KRT8 (11758183_x_at) / RFU CNN1 (11734310_a_at) / Fold change /veh CNN1 (11734310_a_at) / RFU VPS37D (11726825_at) / Fold change /veh VPS37D (11726825_at) / RFU C10orf10 (11716522_x_at) / Fold change /veh C10orf10 (11716522_x_at) / RFU KIR2DL2 /// KIR2DL4 /// KIR2DL5A /// KIR2DL5B /// KIR2DS1 /// KIR2DS2 /// KIR2DS3 /// KIR2DS4 /// KIR3DL3 /// KIR3DL3 /// KIR3DS1 (11738374_at) / Fold change /veh KIR2DL2 /// KIR2DL4 /// KIR2DL5A /// KIR2DL5B /// KIR2DS1 /// KIR2DS2 /// KIR2DS3 /// KIR2DS4 /// KIR3DL3 /// KIR3DL3 /// KIR3DS1 (11738374_at) / RFU C1QL1 (11718748_at) / Fold change /veh C1QL1 (11718748_at) / RFU TMPRSS4 (11747572_a_at) / Fold change /veh TMPRSS4 (11747572_a_at) / RFU HAMP (11756126_x_at) / Fold change /veh HAMP (11756126_x_at) / RFU RNFT2 (11725882_a_at) / Fold change /veh RNFT2 (11725882_a_at) / RFU NR4A2 (11747474_a_at) / Fold change /veh NR4A2 (11747474_a_at) / RFU ABCC12 (11746883_a_at) / Fold change /veh ABCC12 (11746883_a_at) / RFU TMEM136 (11760407_x_at) / Fold change /veh TMEM136 (11760407_x_at) / RFU CLDN22 /// WWC2 (11732394_at) / Fold change /veh CLDN22 /// WWC2 (11732394_at) / RFU HLA-DPB1 (11760878_x_at) / Fold change /veh HLA-DPB1 (11760878_x_at) / RFU SPINT1 (11716480_a_at) / Fold change /veh SPINT1 (11716480_a_at) / RFU GAP43 (11754022_s_at) / Fold change /veh GAP43 (11754022_s_at) / RFU A4GNT (11735810_at) / Fold change /veh A4GNT (11735810_at) / RFU PRB3 (11715151_x_at) / Fold change /veh PRB3 (11715151_x_at) / RFU TUBB4B (11761932_at) / Fold change /veh TUBB4B (11761932_at) / RFU CAPN14 (11732068_a_at) / Fold change /veh CAPN14 (11732068_a_at) / RFU TMCC2 (11721928_a_at) / Fold change /veh TMCC2 (11721928_a_at) / RFU IRGQ (11745062_a_at) / Fold change /veh IRGQ (11745062_a_at) / RFU FAM174B (11720279_a_at) / Fold change /veh FAM174B (11720279_a_at) / RFU TMPRSS4 (11748680_a_at) / Fold change /veh TMPRSS4 (11748680_a_at) / RFU FAM212B (11763350_a_at) / Fold change /veh FAM212B (11763350_a_at) / RFU PLEKHG5 (11743358_a_at) / Fold change /veh PLEKHG5 (11743358_a_at) / RFU ZSCAN30 (11745921_a_at) / Fold change /veh ZSCAN30 (11745921_a_at) / RFU CMKLR1 (11741424_a_at) / Fold change /veh CMKLR1 (11741424_a_at) / RFU LOC101060620 /// MAPK8IP1 (11723275_at) / Fold change /veh LOC101060620 /// MAPK8IP1 (11723275_at) / RFU SPTSSB (11747773_x_at) / Fold change /veh SPTSSB (11747773_x_at) / RFU PRSS12 (11739890_at) / Fold change /veh PRSS12 (11739890_at) / RFU BIN1 (11741810_x_at) / Fold change /veh BIN1 (11741810_x_at) / RFU WNT11 (11732464_a_at) / Fold change /veh WNT11 (11732464_a_at) / RFU C10orf10 (11716521_a_at) / Fold change /veh C10orf10 (11716521_a_at) / RFU C5orf56 (11738089_at) / Fold change /veh C5orf56 (11738089_at) / RFU CYB561 (11721691_x_at) / Fold change /veh CYB561 (11721691_x_at) / RFU ANKRD19P (11752326_a_at) / Fold change /veh ANKRD19P (11752326_a_at) / RFU OR2T12 /// OR2T33 /// OR2T8 (11738714_s_at) / Fold change /veh OR2T12 /// OR2T33 /// OR2T8 (11738714_s_at) / RFU VCAN (11748164_a_at) / Fold change /veh VCAN (11748164_a_at) / RFU JSRP1 (11732532_at) / Fold change /veh JSRP1 (11732532_at) / RFU KRTAP10-11 (11738290_x_at) / Fold change /veh KRTAP10-11 (11738290_x_at) / RFU MYO3A (11730013_a_at) / Fold change /veh MYO3A (11730013_a_at) / RFU EBF3 (11725865_a_at) / Fold change /veh EBF3 (11725865_a_at) / RFU CAMK2N1 (11719241_x_at) / Fold change /veh CAMK2N1 (11719241_x_at) / RFU C5orf56 (11738088_a_at) / Fold change /veh C5orf56 (11738088_a_at) / RFU OLFML3 (11715873_a_at) / Fold change /veh OLFML3 (11715873_a_at) / RFU LOC100653217 /// NTM (11731650_a_at) / Fold change /veh LOC100653217 /// NTM (11731650_a_at) / RFU MAPK11 (11762145_a_at) / Fold change /veh MAPK11 (11762145_a_at) / RFU FIZ1 (11724087_x_at) / Fold change /veh FIZ1 (11724087_x_at) / RFU OASL (11726364_x_at) / Fold change /veh OASL (11726364_x_at) / RFU SOX15 (11748057_x_at) / Fold change /veh SOX15 (11748057_x_at) / RFU CD79A (11719716_a_at) / Fold change /veh CD79A (11719716_a_at) / RFU HIST1H1D (11736915_at) / Fold change /veh HIST1H1D (11736915_at) / RFU CASKIN2 (11723855_a_at) / Fold change /veh CASKIN2 (11723855_a_at) / RFU LOC730098 (11760151_x_at) / Fold change /veh LOC730098 (11760151_x_at) / RFU OR4N2 (11742367_at) / Fold change /veh OR4N2 (11742367_at) / RFU PRRT2 (11749266_a_at) / Fold change /veh PRRT2 (11749266_a_at) / RFU SNX32 (11753110_a_at) / Fold change /veh SNX32 (11753110_a_at) / RFU CDHR5 (11726645_a_at) / Fold change /veh CDHR5 (11726645_a_at) / RFU RCAN1 (11760418_a_at) / Fold change /veh RCAN1 (11760418_a_at) / RFU FAM167A (11723789_a_at) / Fold change /veh FAM167A (11723789_a_at) / RFU FAM26E (11764081_at) / Fold change /veh FAM26E (11764081_at) / RFU ISYNA1 (11749810_s_at) / Fold change /veh ISYNA1 (11749810_s_at) / RFU ACY1 (11761880_at) / Fold change /veh ACY1 (11761880_at) / RFU 11764098_at / Fold change /veh 11764098_at / RFU SAMD14 (11745864_x_at) / Fold change /veh SAMD14 (11745864_x_at) / RFU NPB (11741838_a_at) / Fold change /veh NPB (11741838_a_at) / RFU TMPRSS6 (11731388_a_at) / Fold change /veh TMPRSS6 (11731388_a_at) / RFU KRTAP10-2 (11738614_at) / Fold change /veh KRTAP10-2 (11738614_at) / RFU ARHGAP8 /// PRR5-ARHGAP8 (11727945_x_at) / Fold change /veh ARHGAP8 /// PRR5-ARHGAP8 (11727945_x_at) / RFU KRTAP5-7 /// NADSYN1 (11734609_at) / Fold change /veh KRTAP5-7 /// NADSYN1 (11734609_at) / RFU RASL12 (11751679_a_at) / Fold change /veh RASL12 (11751679_a_at) / RFU CDKN2B (11736163_a_at) / Fold change /veh CDKN2B (11736163_a_at) / RFU PRF1 (11729649_at) / Fold change /veh PRF1 (11729649_at) / RFU, ZNF638 /// ZNF638-IT1 / Fold change vs veh, ZNF638 /// ZNF638-IT1 / RFU, PANK3 / Fold change vs veh, PANK3 / RFU, SH3YL1 / Fold change vs veh, SH3YL1 / RFU, ZEB2 / Fold change vs veh, ZEB2 / RFU, NRIP1 / Fold change vs veh, NRIP1 / RFU, PTTG1IP / Fold change vs veh, PTTG1IP / RFU, CAPN2 / Fold change vs veh, CAPN2 / RFU, MED14 / Fold change vs veh, MED14 / RFU, SNORA58 / Fold change vs veh, SNORA58 / RFU, C1orf63 / Fold change vs veh, C1orf63 / RFU, LRRFIP1 / Fold change vs veh, LRRFIP1 / RFU, NDUFAF7 / Fold change vs veh, NDUFAF7 / RFU, SLC12A2 / Fold change vs veh, SLC12A2 / RFU, IBTK / Fold change vs veh, IBTK / RFU, ESF1 / Fold change vs veh, ESF1 / Fold change vs veh, TMEM50B / RFU, TAOK1 / Fold change vs veh, TAOK1 / RFU, ACBD3 / Fold change vs veh, ACBD3 / RFU, TMA16 / Fold change vs veh, TMA16 / RFU, RWDD3 / Fold change vs veh, RWDD3 / RFU, BCAT1 / Fold change vs veh, BCAT1 / RFU, EDEM3 / Fold change vs veh, EDEM3 / RFU, TMEM33 / Fold change vs veh, TMEM33 / RFU, WDR75 / Fold change vs veh, WDR75 / RFU, AHCTF1 / Fold change vs veh, AHCTF1 / RFU, TFRC / Fold change vs veh, TFRC / RFU, ZDHHC17 / Fold change vs veh, ZDHHC17 / RFU, NOM1 / Fold change vs veh, NOM1 / RFU, ARL8B / Fold change vs veh, ARL8B / RFU, ZBTB11 / Fold change vs veh, ZBTB11 / RFU, TAMM41 / Fold change vs veh, TAMM41 / RFU, KIAA1704 /// LOC100996395 / Fold change vs veh, KIAA1704 /// LOC100996395 / RFU, ING1 / Fold change vs veh, ING1 / RFU, TRMT61B / Fold change vs veh, TRMT61B / RFU, FUBP3 / Fold change vs veh, FUBP3 / RFU, TP53 / Fold change vs veh, TP53 / RFU, TNKS2 / Fold change vs veh, TNKS2 / RFU, ZFP14 / Fold change vs veh, ZFP14 / RFU, ACTR2 / Fold change vs veh, ACTR2 / RFU, PPP3R1 / Fold change vs veh, PPP3R1 / RFU, PIK3R1 / Fold change vs veh, PIK3R1 / RFU, HNRNPA1 / Fold change vs veh, HNRNPA1 / RFU, RNF170 / Fold change vs veh, RNF170 / RFU, ZNF28 / Fold change vs veh, ZNF28 / RFU, RNGTT / Fold change vs veh, RNGTT / RFU, OGT / Fold change vs veh, OGT / RFU, BRD1 / Fold change vs veh, BRD1 / RFU, MARS / Fold change vs veh, MARS / RFU, ZNF655 / Fold change vs veh, ZNF655 / RFU, FAHD1 / Fold change vs veh, FAHD1 / RFU, BDP1 / Fold change vs veh, BDP1 / RFU, LRRCC1 / Fold change vs veh, LRRCC1 / RFU, ARID1A / Fold change vs veh, ARID1A / RFU, ZNF146 / Fold change vs veh, ZNF146 / RFU, ZNF330 / Fold change vs veh, ZNF330 / RFU, GPN3 / Fold change vs veh, GPN3 / RFU, C9orf123 / Fold change vs veh, C9orf123 / RFU, N4BP2L2 / Fold change vs veh, N4BP2L2 / RFU, ARFIP1 / Fold change vs veh, ARFIP1 / RFU, FAM179B / Fold change vs veh, FAM179B / RFU, BCL10 / Fold change vs veh, BCL10 / RFU, UHRF1BP1L / Fold change vs veh, UHRF1BP1L / RFU, BET1 / Fold change vs veh, BET1 / RFU, CNOT2 / Fold change vs veh, CNOT2 / RFU, ZNF268 / Fold change vs veh, ZNF268 / Fold change vs veh, ZNF507 / RFU, DGCR2 / Fold change vs veh, DGCR2 / RFU, WDSUB1 / Fold change vs veh, WDSUB1 / Fold change vs veh, HSP90B1 /// MIR3652 / RFU, ADSS / Fold change vs veh, ADSS / RFU, GK / Fold change vs veh, GK / RFU, ZNF148 / Fold change vs veh, ZNF148 / RFU, TAF9 / Fold change vs veh, TAF9 / RFU, SLC1A5 / Fold change vs veh, SLC1A5 / RFU, SLMO2 / Fold change vs veh, SLMO2 / RFU, ABCC4 / Fold change vs veh, ABCC4 / RFU, LOC101060439 /// RAP1B / Fold change vs veh, LOC101060439 /// RAP1B / RFU, RFX7 / Fold change vs veh, RFX7 / RFU, GTPBP10 / Fold change vs veh, GTPBP10 / RFU, CNEP1R1 / Fold change vs veh, CNEP1R1 / RFU, BIVM-ERCC5 /// ERCC5 / Fold change vs veh, BIVM-ERCC5 /// ERCC5 / RFU, ILF3 / Fold change vs veh, ILF3 / RFU 11762660_at / Fold change /veh 11762660_at / RFU VCAN (11757783_s_at) / Fold change /veh VCAN (11757783_s_at) / RFU DDX43 (11728927_at) / Fold change /veh DDX43 (11728927_at) / RFU KRT8 (11758188_x_at) / Fold change /veh KRT8 (11758188_x_at) / RFU NKD1 (11759106_at) / Fold change /veh NKD1 (11759106_at) / RFU SRD5A1 (11742802_a_at) / Fold change /veh SRD5A1 (11742802_a_at) / RFU TPSAB1 /// TPSB2 (11721975_s_at) / Fold change /veh TPSAB1 /// TPSB2 (11721975_s_at) / RFU GSTM3 (11746129_a_at) / Fold change /veh GSTM3 (11746129_a_at) / RFU IL23R (11737362_x_at) / Fold change /veh IL23R (11737362_x_at) / RFU TMEM51 (11727254_a_at) / Fold change /veh TMEM51 (11727254_a_at) / RFU PIWIL2 (11732686_x_at) / Fold change /veh PIWIL2 (11732686_x_at) / RFU ORM1 (11744905_x_at) / Fold change /veh ORM1 (11744905_x_at) / RFU CCDC152 (11743942_at) / Fold change /veh CCDC152 (11743942_at) / RFU ECM1 (11717891_a_at) / Fold change /veh ECM1 (11717891_a_at) / RFU IL23R (11748794_a_at) / Fold change /veh IL23R (11748794_a_at) / RFU TNFAIP8L3 (11732012_x_at) / Fold change /veh TNFAIP8L3 (11732012_x_at) / RFU MBOAT4 (11741988_at) / Fold change /veh MBOAT4 (11741988_at) / RFU 11764193_at / Fold change /veh 11764193_at / RFU TMEM53 (11763286_at) / Fold change /veh TMEM53 (11763286_at) / RFU MAGEB2 (11727129_at) / Fold change /veh MAGEB2 (11727129_at) / RFU TMEM200A (11744735_a_at) / Fold change /veh TMEM200A (11744735_a_at) / RFU CCDC152 (11751479_a_at) / Fold change /veh CCDC152 (11751479_a_at) / RFU FAM211A (11726209_a_at) / Fold change /veh FAM211A (11726209_a_at) / RFU RGS16 (11746705_a_at) / Fold change /veh RGS16 (11746705_a_at) / RFU VCAN (11755009_s_at) / Fold change /veh VCAN (11755009_s_at) / RFU RHOB (11743442_s_at) / Fold change /veh RHOB (11743442_s_at) / RFU RGS16 (11720943_a_at) / Fold change /veh RGS16 (11720943_a_at) / RFU RGS16 (11720944_at) / Fold change /veh RGS16 (11720944_at) / RFU, VPS4B / Fold change vs veh, VPS4B / RFU, CREB1 / Fold change vs veh, CREB1 / RFU, DNAJC13 / Fold change vs veh, DNAJC13 / RFU, GNAQ / Fold change vs veh, GNAQ / RFU, CDK5R1 / Fold change vs veh, CDK5R1 / RFU, ZRANB3 / Fold change vs veh, ZRANB3 / RFU, CUL4A / Fold change vs veh, CUL4A / RFU, CCNY / Fold change vs veh, CCNY / RFU, UFL1 / Fold change vs veh, UFL1 / RFU, COG3 / Fold change vs veh, COG3 / RFU, DIAPH2 / Fold change vs veh, DIAPH2 / RFU, SKA2 / Fold change vs veh, SKA2 / RFU, AFF3 / Fold change vs veh, AFF3 / RFU, LMF1 / Fold change vs veh, LMF1 / RFU, IPO11 / Fold change vs veh, IPO11 / RFU, DFFB / Fold change vs veh, DFFB / RFU, FOXP1 / Fold change vs veh, FOXP1 / RFU, CARD8 / Fold change vs veh, CARD8 / RFU, STRN3 / Fold change vs veh, STRN3 / RFU, ADK / Fold change vs veh, ADK / RFU, RASSF2 / Fold change vs veh, RASSF2 / RFU, WIPF1 / Fold change vs veh, WIPF1 / RFU, LARP1B / Fold change vs veh, LARP1B / RFU, RASA1 / Fold change vs veh, RASA1 / RFU, RB1 / Fold change vs veh, RB1 / RFU, PPFIA1 / Fold change vs veh, PPFIA1 / RFU, MAT2A / Fold change vs veh, MAT2A / RFU, CCT5 / Fold change vs veh, CCT5 / RFU, WDR92 / Fold change vs veh, WDR92 / RFU, CUX1 / Fold change vs veh, CUX1 / RFU, TTC7A / Fold change vs veh, TTC7A / RFU, TMEM135 / Fold change vs veh, TMEM135 / RFU, DEPTOR / Fold change vs veh, DEPTOR / RFU, CPM / Fold change vs veh, CPM / RFU, DNAJB6 / Fold change vs veh, DNAJB6 / RFU, CACNA2D3 / Fold change vs veh, CACNA2D3 / RFU, DTX4 / Fold change vs veh, DTX4 / RFU, TFCP2 / Fold change vs veh, TFCP2 / RFU, GMCL1 /// GMCL1P1 / Fold change vs veh, GMCL1 /// GMCL1P1 / RFU, AEBP2 / Fold change vs veh, AEBP2 / RFU, SNHG1 /// SNORD22 /// SNORD25 /// SNORD26 /// SNORD27 /// SNORD28 /// SNORD29 /// SNORD31 / Fold change vs veh, SNHG1 /// SNORD22 /// SNORD25 /// SNORD26 /// SNORD27 /// SNORD28 /// SNORD29 /// SNORD31 / Fold change (Aza/veh), C12orf56 (ProbeSet 11735607_a_at) / Fold change (ACY-1035/veh), C12orf56 (ProbeSet 11735607_a_at) / Fold change (Aza/veh), FGFR1OP (ProbeSet 11751329_s_at) / Fold change (ACY-1035/veh), FGFR1OP (ProbeSet 11751329_s_at) / Fold change (Aza/veh), VPS36 (ProbeSet 11739960_a_at) / Fold change (ACY-1035/veh), VPS36 (ProbeSet 11739960_a_at) / RFU SYPL1 (11715823_x_at) / Fold change /veh SYPL1 (11715823_x_at) / RFU IGFBP7 (11715501_s_at) / Fold change /veh IGFBP7 (11715501_s_at) / RFU REEP3 (11722064_at) / Fold change /veh REEP3 (11722064_at) / RFU IGLL1 (11728026_x_at) / Fold change /veh IGLL1 (11728026_x_at): dose or concentration left out as unconfirmed",
  "conditions": "MV-4-11 cells, 48 hours",
  "data": [
    {"compound": "Nc1ncn([C@@H]2O[C@H](CO)[C@@H](O)[C@H]2O)c(=O)n1", "note": "[azacitidine]", "values": [
      {"measurement": "RFU IL23R (11748794_a_at)", "result": 8.76, "unit": "RFU"}
    ]}
  ]
}
